Test results as given in paper PMC3230782 (Peptides, 2011).

Experiments:
[1] = tested on: estrogen-stimulated growth of the immature mouse uterus; assay: immature mouse uterine growth inhibition assay; assay type: in vivo, mouse (Swiss Webster female); settings: for effect on the growth inhibition activity of AFPep when combined: combination with AFPep (Figure 2A, 2C); for dose-response behaviour of inhibition of estrogen-stimulated uterine growth: peptide alone, range of doses i.p. (Figure 1)
[2] = tested on: estrogen-stimulated growth of the immature mouse uterus; settings: 30 (EMTPVNPG), 29 (AFPep); cited from earlier work
[3] = earlier work; 30 (EMTPVNPG); 29 (AFPep); cited from earlier work

Substance	effect on the growth inhibition activity of AFPep when combined [1]	dose-response behaviour of inhibition of estrogen-stimulated uterine growth [1]	dose-response behaviour in anti-estrotrophic assay (earlier work) [2]	shelf life [3]
cyclo[EKTOVNOGN] FS (lariat or depsi)	decreased the activity of AFPep	little activity at any dose	–	–
EMTPVNPG	–	–	biphasic dose-response curve	very short shelf life
cyclo[EKTOVGOGN] FS (lariat or depsi)	enhanced the activity of AFPep	no activity at any dose	–	–
